{
  "source": "patent US4892875A",
  "about": "“Substituted heterocyclylalkyl esters of 1,4-dihydropyridine-3,5-dicarboxylic acids” (Takeda Chemical Industries, Ltd., priority 1982, dated 1990)",
  "tested_on": "spontaneously hypertensive rats",
  "assay": "Antihypertensive action (systolic blood pressure, caudal artery) in male spontaneously hypertensive rats",
  "assay_type": "in vivo, rat",
  "conditions": "10 mg/kg oral; for Change in blood pressure 1 hr. after treatment / Change in blood pressure 5 hrs. after treatment: after minus before medication, * P < 0.05 vs control; for Duration of antihypertensive effect: measured 1, 5, 8 and 24 hours after administration",
  "description": "Male spontaneously hypertensive rats aged 10 to 11 weeks were used (in groups of 3 to 6 individuals). […] Each test compound was suspended in a 5% solution of gum arabic and orally administered. The dosage was 10 mg/kg for all compounds. Animals in a control group was given the above solution of gum arabic only.",
  "data": [
    {"molecule": "CCOC(=O)C1=C(C)NC(C)=C(C(=O)OCCN2CCN(C(c3ccccc3)c3ccccc3)CC2)C1c1cccc([N+](=O)[O-])c1", "note": "(stereo not drawn) [Example 2, 2-(4-benzhydryl-1-piperazinyl)ethyl ethyl 2,6-dimethyl-4-(3-nitrophenyl)-1,4-dihydropyridine-3,5-dicarboxylate]", "values": [
      {"measurement": "Change in blood pressure 1 hr. after treatment", "result": -99, "unit": "mmHg"},
      {"measurement": "Change in blood pressure 5 hrs. after treatment", "result": -101, "unit": "mmHg"},
      {"measurement": "Duration of antihypertensive effect", "result": "8 to 24", "unit": "h"}
    ]},
    {"molecule": "COC(=O)C1=C(C)NC(C)=C(C(=O)OCCN2CCN(c3ccccc3Cl)CC2)C1c1cccc([N+](=O)[O-])c1", "note": "(stereo not drawn) [Example 44, 2-[4-(2-chlorophenyl)-1-piperazinyl]ethyl methyl 2,6-dimethyl-4-(3-nitrophenyl)-1,4-dihydropyridine-3,5-dicarboxylate]", "values": [
      {"measurement": "Change in blood pressure 1 hr. after treatment", "result": -44, "unit": "mmHg"},
      {"measurement": "Change in blood pressure 5 hrs. after treatment", "result": -22, "unit": "mmHg"},
      {"measurement": "Duration of antihypertensive effect", "result": "8 to 24", "unit": "h"}
    ]},
    {"molecule": "COC(=O)C1=C(C)NC(C)=C(C(=O)OCCN2CCN(c3ccc(Cl)cc3)CC2)C1c1cccc([N+](=O)[O-])c1", "note": "(stereo not drawn) [Example 45, 2-[4-(4-chlorophenyl)-1-piperazinyl]ethyl methyl 2,6-dimethyl-4-(3-nitrophenyl)-1,4-dihydropyridine-3,5-dicarboxylate]", "values": [
      {"measurement": "Change in blood pressure 1 hr. after treatment", "result": -57, "unit": "mmHg"},
      {"measurement": "Change in blood pressure 5 hrs. after treatment", "result": -42, "unit": "mmHg"},
      {"measurement": "Duration of antihypertensive effect", "result": "8 to 24", "unit": "h"}
    ]},
    {"molecule": "COC(=O)C1=C(C)NC(C)=C(C(=O)OCCN2CCN(c3ccccc3C)CC2)C1c1cccc([N+](=O)[O-])c1", "note": "(stereo not drawn) [Example 51, methyl 2-[4-(2-methylphenyl)-1-piperazinyl]ethyl 2,6-dimethyl-4-(3-nitrophenyl)-1,4-dihydropyridine-3,5-dicarboxylate]", "values": [
      {"measurement": "Change in blood pressure 1 hr. after treatment", "result": -69, "unit": "mmHg"},
      {"measurement": "Change in blood pressure 5 hrs. after treatment", "result": -54, "unit": "mmHg"},
      {"measurement": "Duration of antihypertensive effect", "result": "8 to 24", "unit": "h"}
    ]},
    {"molecule": "COC(=O)C1=C(C)NC(C)=C(C(=O)OCCN2CCN(c3ccc(F)cc3)CC2)C1c1cccc([N+](=O)[O-])c1.Cl", "note": "(stereo not drawn) [Example 16, 2-[4-(4-fluorophenyl)-1-piperazinyl]ethyl methyl 2,6-dimethyl-4-(3-nitrophenyl)-1,4-dihydropyridine-3,5-dicarboxylate hydrochloride]", "values": [
      {"measurement": "Change in blood pressure 1 hr. after treatment", "result": -51, "unit": "mmHg"},
      {"measurement": "Change in blood pressure 5 hrs. after treatment", "result": -45, "unit": "mmHg"},
      {"measurement": "Duration of antihypertensive effect", "result": "8 to 24", "unit": "h"}
    ]},
    {"molecule": "2-[4-(4-fluorophenyl)-1-piperazinyl]ethyl methyl 4-(3-chlorophenyl)-2,6-dimethyl-1,4-dihydropyridine-3,5-dicarboxylate [Example 42]", "values": [
      {"measurement": "Change in blood pressure 1 hr. after treatment", "result": -25, "unit": "mmHg"},
      {"measurement": "Change in blood pressure 5 hrs. after treatment", "result": -35, "unit": "mmHg"},
      {"measurement": "Duration of antihypertensive effect", "result": "8 to 24", "unit": "h"}
    ]},
    {"molecule": "CCOC(=O)C1=C(C)NC(C)=C(C(=O)OCCN2CCN(c3ccc(F)cc3)CC2)C1c1cccc([N+](=O)[O-])c1", "note": "(stereo not drawn) [Example 41, ethyl 2-[4-(4-fluorophenyl)-1-piperazinyl]ethyl 2,6-dimethyl-4-(3-nitrophenyl)-1,4-dihydropyridine-3,5-dicarboxylate]", "values": [
      {"measurement": "Change in blood pressure 1 hr. after treatment", "result": -55, "unit": "mmHg"},
      {"measurement": "Change in blood pressure 5 hrs. after treatment", "result": -67, "unit": "mmHg"},
      {"measurement": "Duration of antihypertensive effect", "result": "ca. 24 hrs."}
    ]},
    {"molecule": "COC(=O)C1=C(C)NC(C)=C(C(=O)OCCN2CCN(c3cccc(Cl)c3Cl)CC2)C1c1cccc([N+](=O)[O-])c1", "note": "(stereo not drawn) [Example 58, 2-[4-(2,3-dichlorophenyl)-1-piperazinyl]ethyl methyl 2,6-dimethyl-4-(3-nitrophenyl)-1,4-dihydropyridine-3,5-dicarboxylate]", "values": [
      {"measurement": "Change in blood pressure 1 hr. after treatment", "result": -27, "unit": "mmHg"},
      {"measurement": "Change in blood pressure 5 hrs. after treatment", "result": -39, "unit": "mmHg"},
      {"measurement": "Duration of antihypertensive effect", "result": "8 to 24", "unit": "h"}
    ]},
    {"molecule": "COC(=O)C1=C(C)NC(C)=C(C(=O)OCCN2CCN(C(c3ccccc3)c3ccccc3)CC2)C1c1cccc2nonc12.Cl.Cl", "note": "(stereo not drawn) [Example 60, 2-(4-benzhydryl-1-piperazinyl)ethyl methyl 4-(2,1,3-benzoxadiazol-4-yl)-2,6-dimethyl-1,4-dihydropyridine-3,5-dicarboxylate dihydrochloride]", "values": [
      {"measurement": "Change in blood pressure 1 hr. after treatment", "result": -98, "unit": "mmHg"},
      {"measurement": "Change in blood pressure 5 hrs. after treatment", "result": -90, "unit": "mmHg"},
      {"measurement": "Duration of antihypertensive effect", "result": "8 to 24", "unit": "h"}
    ]}
  ]
}
